Biological target: T1, KRAS WT/SOS1 (Homo sapiens, UniProt Q07889)
T1 sequence (Q07889 1-1333): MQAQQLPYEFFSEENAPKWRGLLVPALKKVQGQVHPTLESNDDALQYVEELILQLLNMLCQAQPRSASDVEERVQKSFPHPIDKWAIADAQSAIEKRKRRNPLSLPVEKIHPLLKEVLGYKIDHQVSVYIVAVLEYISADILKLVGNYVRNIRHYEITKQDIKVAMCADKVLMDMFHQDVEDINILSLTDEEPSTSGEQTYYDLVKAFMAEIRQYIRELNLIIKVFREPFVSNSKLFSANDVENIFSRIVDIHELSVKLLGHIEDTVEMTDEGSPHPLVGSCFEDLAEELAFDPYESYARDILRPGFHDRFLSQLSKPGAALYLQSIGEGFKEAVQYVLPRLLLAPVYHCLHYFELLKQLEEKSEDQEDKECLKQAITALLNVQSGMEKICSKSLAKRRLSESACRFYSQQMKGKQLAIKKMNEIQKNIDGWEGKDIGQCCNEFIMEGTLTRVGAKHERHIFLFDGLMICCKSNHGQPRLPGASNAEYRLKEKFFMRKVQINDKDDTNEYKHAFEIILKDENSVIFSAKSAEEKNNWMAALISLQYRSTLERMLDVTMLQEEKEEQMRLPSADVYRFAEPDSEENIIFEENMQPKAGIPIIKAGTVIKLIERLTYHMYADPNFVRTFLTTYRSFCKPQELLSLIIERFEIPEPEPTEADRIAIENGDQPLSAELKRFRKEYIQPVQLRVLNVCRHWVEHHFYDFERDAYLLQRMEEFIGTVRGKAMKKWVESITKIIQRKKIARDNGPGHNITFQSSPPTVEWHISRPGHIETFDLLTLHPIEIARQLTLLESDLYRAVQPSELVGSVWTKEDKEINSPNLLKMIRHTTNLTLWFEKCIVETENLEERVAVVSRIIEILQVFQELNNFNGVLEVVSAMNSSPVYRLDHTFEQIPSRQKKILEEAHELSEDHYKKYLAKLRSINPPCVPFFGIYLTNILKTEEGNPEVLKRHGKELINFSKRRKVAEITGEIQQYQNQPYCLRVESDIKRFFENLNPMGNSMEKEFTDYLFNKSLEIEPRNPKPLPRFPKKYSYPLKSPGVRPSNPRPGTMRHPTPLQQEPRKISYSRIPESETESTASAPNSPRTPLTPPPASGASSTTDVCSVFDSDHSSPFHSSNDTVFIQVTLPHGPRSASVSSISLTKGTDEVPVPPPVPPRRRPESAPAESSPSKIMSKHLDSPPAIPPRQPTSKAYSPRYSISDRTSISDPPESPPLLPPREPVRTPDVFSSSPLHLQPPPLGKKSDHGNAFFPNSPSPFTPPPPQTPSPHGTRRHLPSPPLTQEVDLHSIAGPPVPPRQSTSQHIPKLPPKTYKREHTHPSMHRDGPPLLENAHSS
Assay: HTRF KRAS WT/SOS1 PPI kit (Cisbio) screen for SOS1 inhibitors
Format: binding
Settings: 10-point 1/2-log dilution from 10 μM, 60 minutes at room temperature
Protocol: Compounds were screened using an HTRF KRAS WT/SOS1 PPI kit provided by Cis bio, according to the manufacturer's instructions, with the modifications described below. All reagents were allowed to equilibrate to room temperature and diluted to working stock in Binding Domain Detection buffer (BDD buffer). Stock solutions were prepared by adding 1 part Tag1-KRAS WT/GTP to 1 part Tag2-SOS1 and 1 part BDD. Separately, 1 part Anti-Tag1 XL665 antibody premix was added to Anti-Tag2 Tb cryptate antibody premix. BI-3406 (Selleck Chemicals) was used as a standard, solubilised to 10 mM in DMSO. Test compounds were also solubilised to 10 mM in DMSO. […] Per well, 6 μL of Tag1-KRAS WT/GTP premix, 4 ul Tag2-SOS1 premix and 10 μl of Anti-Tag1 XL665 and Anti-Tag2 Tb cryptate antibodies were then added using a E1-ClipTip™ Electronic Adjustable Multichannel Equalizer Pipette. After the final addition, the plate was covered and placed in the benchtop incubator set at 22° C. The reaction was incubated for 60 minutes at room temperature, prior to reading using a Pherastar FSX plate reader.

IC50: < 100 nM
Structure (SMILES): Cc1nc(N[C@H](C)c2cccc(C(F)F)c2F)c2cc(S(=O)(=O)N3CC4CC(C3)O4)ncc2n1 [Example 18, 6-((6-oxa-3-azabicyclo [3.1.1]heptan-3-yl)sulfonyl)-N—((R)-1-(3-(difluoromethyl)-2-fluorophenyl)ethyl)-2-methylpyrido[3,4-d] pyrimidin-4-amine]

Source: patent publication US20260115194A1, “NEW TREATMENTS FOR PAIN” (Sevenless Therapeutics Limited, priority 2023, published 2026)
